Measured values taken from patent US20220213030A1, “AMINOGUANIDINE HYDRAZONES AS RETROMER STABILIZERS USEFUL FOR TREATING NEUROLOGICAL DISEASES” (OSPEDALE SAN RAFFAELE SRL, priority 2019, published 2022).
Entries after “also recorded” stand apart in the source; their conditions may differ.

How the values were obtained:
VPS35 = VPS35 (Mus musculus, UniProt Q9EQH3+Q9QZ88); assay: VPS35 levels in Neuro2a cells by Western blot (screening of amino guanidine hydrazones); format: cell-based; parameters: endogenous in cells; host or cells: Neuro2a; settings: 48 hours; for Mean fold changes (VPS35 levels normalized on β-Actin, over vehicle-treated cells): 10 μM, independent cultures n=3; for VPS35 levels (in words): compounds at 10 μM
Protocol: To functionally screen the majority of synthetized amino guanidine hydrazones of the invention and determine their effects on the retromer complex, we incubated Neuro2a cells with each synthetized molecule at the concentration of 10 μM.
The test was executed in triplicate for each tested compound of the invention, cells lysates were established after 48 hours' incubation, and levels of VPS35 were normalized on the housekeeping gene β-Actin by Western blot. We observed a preliminary SAR among the compounds.
Fold changes are calculated over normalized VPS35 levels measured in vehicle-treated cells.
Neuro2a cells were seeded on 12 wells multiwell at the concentration of 100 000 cells/well. Cells were incubated with each compound, including the standard R55, at 10 μM for 48 hours. Cells were then washed in PBS 1× and lysed in a buffer containing Tris-HCl 10 mM pH8, EDTA 1 mM pH8, NaCl 100 mM, NP40 1%, with protease inhibitor cocktail (Sigma) 1×. Using a cell scraper total lysates were collected from each well, quantified with BCA (BCA protein assay, Thermofisher). Five μg were resolved on precast 10% acrylamide gel (Biorad). Proteins were transferred to a PVDF membrane (Millipore) and western blot were performed using the following antibodies: goat αVPS35 (1:1000), mouse α-βActin (1:10000). Detection of proteins was obtained by a chemiluminescence detection kit (PerkinElmer).

[1] = test system: Neuro2a cells receiving H2O2; assay: H2O2-induced cell death in Neuro2a cells; format: cell-based, mouse; settings: compound 10 μM, H2O2 200 μM, 48 hours
Protocol: We tested the specificity of compound 2a in an assay based on H2O2-induced chromosomal breaks that lead to DNA fragmentation and cell death. In principle such DNA lesions are the cause of cell death according to a process that is not influenced by the retromer. Thus, our leads should not be able to modulate rates cell survival in Neuro2a cells receiving H2O2. We incubated Neuro2a cells with 200 μM of H2O2 along with compounds 2a, 2c, 2d and 2g (10 μM).
Cell survival experiments were run on 96-well plates using Cell Counting Kit-8 (CCK8) survival kit (96992-Sigma) according the manufacturer's recommendations. Compound 2a cytotoxicity was tested on Neuro2a cells receiving increasing amount of compound 2a (1, 10, 50, 100, 200, 500 and 1000 μM) for 48 hours.

LC3 = assay: pHfluorin-LC3 autophagy assay in Neuro2a clone 7B11; format: cell-based, mouse; settings: BafilomycinA1 200 nM, Torin-1 250 nM, 48 hours
Protocol: Besides increasing the functionality of lysosomes we hypothesised that compound 2a could also enhance the autophagy system. Therefore we used a pHfluorin-LC3-based assay to monitor the autophagy process in living Neuro2a cells. We have established in our laboratory a Neuro2a stable cell clone (7B11) that expresses the Microtubule-associated protein 1A/1B-light chain 3 (LC3) coupled with the ph-sensitive GFP/phlourin.
Neuro2a-7B11 cells were incubated with increasing concentrations of compound 2a (0.1-100 μM) as well as with the control molecules Bafilomycin Al and Torin-1. After 48 hours the GFP/phluorin signal, which is ph-sensitive, was measured by flow cytometry and fold changes calculated over untreated cells.
Autophagy assay were done using a stable Neuro2a cell clone expressing the pHluorin-mKate2-tagged human LC3 plasmids, Cell clones were generated according our published methods (Mazzocchi 2016). Upon transfection, cells were selected by 400 μg/mL G418 Disulfate Salt Solution (Sigma-Aldrich, St. Louis, Mo.) and further cloned by limiting dilution. […] Neuro2a 7B11 cells were treated with Compound 2a (0.1-100 μM) for 48 hours then MFI levels of the pHfluorin were measured in living cells by flow cytometry.

TNFα = assay: LPS-mediated TNFα release in Raw 264.7 cells (ELISA); format: cell-based, murine; settings: 10 μM for 1 hour, then LPS 100 ng/ml, 4 hours
Source text: We observed that the molecular structure featuring compound 2a is reminiscent of the patented compound CNI-1493 (N,N′-bis [3,5 -bis [1(aminoiminomethyl) hydrazono]ethyl]phenyl]decanediamide tetrahydrochloride (CAS Reg. No. 164301-51-3)), (FIG. 16A). CNI-1493 inhibits macrophage activation in the animal model of Multiple Sclerosis producing a general amelioration of clinical and pathological outcomes of these mice (Martiney, Rajan et al. 1998). […] CNI-1493 suppresses the production of pro-inflammatory cytokines, belonging to the plethora of detrimental signals that accompany neurodegenerative processes in several disorders. […] We followed experimental procedures published by Bianchi and colleagues that describe the ability of CNI-1493 to blunt the production of this cytokine (Bianchi, Bloom et al. 1996). Cells were incubated with CNI-1493 (10 μM) or with compound 2a (10 μM) for 1 hour and then we added the LPS (100 ng/ml) to media. We next collected supernatants (4 hours after the LPS stimulation) form cells for the evaluation of TNFα levels.
Raw 264.7 cells (10^5/well) were treated with compound 2a, CNI-1493 or vehicle for 1 hour then we applied LPS (100 ng/ml) and supernatants were collected after 4 hours. […] Concentrations of TNFα were calculated according to a standard curve and expressed as nanograms per […]. […]

G93A mice = settings: mouse, in vivo; cited from earlier work
[2] = test system: TNFα, IL-1(3, IL-6 and macrophage inflammatory proteins 1α and 1β); settings: cited from earlier work

Row | Mean fold changes (VPS35 levels normalized on β-Actin, over vehicle-treated cells) (VPS35) | Structure (SMILES) | further results
1 | 1.784 | N=C(N)NN=Cc1cc(C=NNC(=N)N)cc(C(=O)N2CCN(c3ccccc3)CC2)c1 [Compound 2q, 5-(N4-phenylpiperazinyl)carboxamido-3,5-bis-amino guanidine phenyl hydrazone] | 
2 | 2.070 | COc1ccc(C=NNC(=N)N)cc1C=NNC(=N)N [Compound 2e, 1-Methoxy-2,4-bis-amino guanidine phenyl hydrazone] | 
3 | 1.280 | CS(=O)(=O)Nc1cc(C=NNC(=N)N)cc(C=NNC(=N)N)c1 [Compound 2n, 1-Methylsulfonamido-3,5-bis-aminoguanidine phenyl hydrazone] | 
4 | 1.310 | COc1cc(C=NNC(=N)N)cc(C=NNC(=N)N)c1 [Compound 2i, 1-Methoxy-3,5-bis-aminoguanidine phenyl hydrazone] | 
5 | 1.978 | N=C(NN=Cc1cccc(C=NNC(=N)N2CCCC2)c1)N1CCCC1 [Compound 2v, 1,3-bis-(N3-pyrrolidinyl) guanidine phenyl hydrazone] | 
6 | 1.300 | N=C(N)NN=Cc1cccc(C=NNC(=N)N)c1Br [Compound 2b, 2-Bromo-1,3-bis-aminoguanidine phenyl hydrazone] | 
7 | 1.582 | COC(=O)c1cc(C=NNC(=N)N)cc(C=NNC(=N)N)c1 [Compound 2p, 1-Carbomethoxy-3,5-bis-amino guanidine phenyl hydrazone] | 
8 | 1.660 | CC(=O)Nc1cc(C=NNC(=N)N)cc(C=NNC(=N)N)c1 [Compound 2l, 1-Acetamido-3,5-bis-aminoguanidine phenyl hydrazone] | 

Continued, compound first:

Row | Structure (SMILES) | Mean fold changes (VPS35 levels normalized on β-Actin, over vehicle-treated cells) (VPS35) | further results
9 | CCCCNC(=N)NN=Cc1cc(C=NNC(=N)NCCCC)cc(NC(=O)c2ccc(C)cc2)c1 [Compound 2w, 1-p-Tolylamido-3,5-bis-(N3-n-butylamino) guanidine phenyl hydrazone] | 0.625 | 
10 | C(=NNc1nc2ccccc2[nH]1)c1cccc(C=NNc2nc3ccccc3[nH]2)c1 [Compound 2z, 1,3-Bis-(N2N3-benzimidazolidinyl) guanidine phenyl hydrazone] | 1.105 | 
11 | Cc1cc(C=NNC(=N)N)cc(C=NNC(=N)N)c1 [Compound 2g, 5-Methyl-1,3-bis-aminoguanidine phenyl hydrazone] | 2.080 | cell survival with H2O2 with or without compound [1]: did not result in any significant difference
12 | C/C(=N\NC(=N)N)c1cccc(/C(C)=N/NC(=N)N)c1 [Compound (VIII), 1′,3′-Dimethyl-1,3-bis-aminoguanidine phenyl hydrazone, reference compound] | 0.600 | 
13 | CCC(=O)N1CCN(c2ccc(-n3c(=O)ccc4cnc5ccc(-c6cnc7ccccc7c6)cc5c43)cc2C(F)(F)F)CC1 [Torin 1, reference compound] |  | GFP/phluorin fluorescence, control molecules (LC3): significantly dampened
14 | CO/C1=C\C(C)=C\[C@@H](C)[C@@H](O)[C@@H](C)C/C(C)=C/C=C/[C@H](OC)[C@@H]([C@@H](C)[C@@H](O)[C@H](C)[C@@]2(O)C[C@@H](O)[C@H](C)[C@@H](C(C)C)O2)OC1=O [Bafilomycin A1, reference compound] |  | GFP/phluorin fluorescence, control molecules (LC3): augmented fluorescence
15 | C/C(=N\N=C(N)N)c1cc(NC(=O)CCCCCCCCC(=O)Nc2cc(/C(C)=N/N=C(N)N)cc(/C(C)=N/N=C(N)N)c2)cc(/C(C)=N/N=C(N)N)c1.Cl.Cl.Cl.Cl [CNI-1493, reference compound] |  | TNFα levels in supernatants (TNFα): significantly inhibited the expression of this cytokine; also recorded: significantly blunted TNFα expression; onset of the disease and lifespan (G93A mice): delayed the onset of the disease and increased the lifespan of mice; expression of pro-inflammatory cytokines [2]: inhibits the expression; VPS35 levels (in words) (VPS35): did not increased; VPS35 levels (in words) (VPS35; listed as CNI-1494): does not modulate VPS35
16 | N=C(N)NN=Cc1ccc(O)c(C=NNC(=N)N)c1 [Compound 2d, 1-Hydroxy-2,4-bis-aminoguanidine phenyl hydrazone] | 2.477 | cell survival with H2O2 with or without compound [1]: did not result in any significant difference
17 | N=C(N)NN=Cc1cc(C=NNC(=N)N)cc(C=NNC(=N)N)c1 [Compound 2r, 1-3,5-tris-amino guanidine phenyl hydrazone] | 1.154 | 
18 | CCCCOc1ccc(C=NNC(=N)N)cc1C=NNC(=N)N [Compound 2f, 1-(n-Butoxy)-2,4-bis-aminoguanidine phenyl hydrazone] | 1.415 | 
19 | N=C(N)NN=Cc1ccc(Br)c(C=NNC(=N)N)c1 [Compound 2c, 4-Bromo-1,3-bis-amino guanidine phenyl hydrazone] | 1.617 | cell survival with H2O2 with or without compound [1]: did not result in any significant difference
20 | Cc1ccc(S(=O)(=O)Nc2cc(C=NNC(=N)N)cc(C=NNC(=N)N)c2)cc1 [Compound 2o, 1-p-Tolylsulfonamido-3,5-bis-aminoguanidine phenyl hydrazone] | 1.501 | 
21 | Cc1ccc(C(=O)Nc2cc(C=NNC(=N)N)cc(C=NNC(=N)N)c2)cc1 [Compound 2m, 1-p-Tolylamido-3,5-bis-aminoguanidine phenyl hydrazone] | 0.974 | 
